The values below are quoted from earlier work in US20260114463A1, “COATING LIQUID COMPOSITION, PRODUCTION METHOD THEREFOR, AND LIQUID CONTAINING LOW-TEMPERATURE DAMAGE INHIBITOR” (Mitsubishi Chemical Corporation, priority 2023, published 2026).

The conditions of the data set: raw material data.

As to Glycerin monocaprylate [Example M-100], the HLB is recorded as 7.0.
